Values of other authors in patent US9532987B2, “Use of a combination of a MEK inhibitor and an ERK inhibitor for treatment of hyperproliferative diseases” (Genentech, Inc., priority 2013, dated 2017).

What was measured:
[1] = test system: tumor cells bearing activating Ras mutations
[2] = test system: tumor cells bearing activating B-RAF mutations

SMILES | inhibition of tumor cell growth [1] | inhibition of tumor cell growth [2]
O=C(c1ccc(F)c(F)c1Nc1ccc(I)cc1F)N1CC(O)([C@@H]2CCCCN2)C1 [GDC-0973, [3,4-difluoro-2-[(2-fluoro-4-iodophenyl)amino]phenyl][3-hydroxy-3-[(2S)-2-piperidinyl]-1-azetidinyl]methanone] | effective | more activity
O=C(NOCCO)c1ccc2cncn2c1Nc1ccc(I)cc1F [GDC-0623, 5-[(2-fluoro-4-iodophenyl)amino]-N-(2-hydroxyethoxy)-imidazo[1,5-a]pyridine-6-carboxamide] | more activity | effective
